# Results taken from PubChem BioAssay AID1963874 (Molecular Pharmacology Branch, DTP, NCI, 2024).
# Tested on: 253994-281-T-J1-PDC KRAS-mutant spheroids with HUVEC/MSC, viability
# Assay: Anticancer human tumor 253994-281-T-J1-PDC patient-derived colorectal carcinoma cell line growth inhibition [KRAS2]
# Details: for IC50: curve of first compound; for viability, T/C: stronger effect = lower value
# In short: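 Combination screen of spheroid viability in tumor-cell co-cultures with endothelial (HUVEC) and mesenchymal stem cell stroma. Each agent was tested in half-log dilutions, topping at clinical Cmax or at 10 microM without a known Cmax.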
# [1] = second compound 0.1 µM, first compound 0.0316 µM
# [2] = second compound 0.316 µM, first compound 0.0316 µM
# [3] = second compound 1 µM, first compound 0.0316 µM
# [4] = second compound 3.16 µM, first compound 0.0316 µM
# [5] = second compound 10 µM, first compound 0.0316 µM
# [6] = second compound 0.1 µM, first compound 0.1 µM
# [7] = second compound 0.1 µM, first compound 0.316 µM
# [8] = second compound 0.1 µM, first compound 1 µM
# [9] = second compound 0.1 µM, first compound 3.16 µM
# [10] = second compound 0.1 µM, first compound 10 µM
# [11] = second compound 0.316 µM, first compound 0.1 µM
# [12] = second compound 0.316 µM, first compound 0.316 µM
# [13] = second compound 0.316 µM, first compound 1 µM
# [14] = second compound 0.316 µM, first compound 3.16 µM
# [15] = second compound 0.316 µM, first compound 10 µM
# [16] = second compound 1 µM, first compound 0.1 µM
# [17] = second compound 1 µM, first compound 0.316 µM
# [18] = second compound 1 µM, first compound 1 µM
# [19] = second compound 1 µM, first compound 3.16 µM
# [20] = second compound 1 µM, first compound 10 µM
# [21] = second compound 3.16 µM, first compound 0.1 µM
# [22] = second compound 3.16 µM, first compound 0.316 µM
# [23] = second compound 3.16 µM, first compound 1 µM
# [24] = second compound 3.16 µM, first compound 3.16 µM
# [25] = second compound 3.16 µM, first compound 10 µM
# [26] = second compound 10 µM, first compound 0.1 µM
# [27] = second compound 10 µM, first compound 0.316 µM
# [28] = second compound 10 µM, first compound 1 µM
# [29] = second compound 10 µM, first compound 3.16 µM
# [30] = second compound 10 µM, first compound 10 µM
# 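Further: spheroids exposed to agents for seven days before readout.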
# 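Wherever viability, T/C is given: percent of DMSO vehicle control viability.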
smiles,measurement,setting,value
CC(=O)Nc1cccc(-n2c(=O)n(C3CC3)c(=O)c3c(Nc4ccc(I)cc4F)n(C)c(=O)c(C)c32)c1 + CC1OCC2(CCN(c3cnc(Sc4ccnc(N)c4Cl)c(N)n3)CC2)C1N,IC50,second compound 0.1 µM,0.565 nM
same,IC50,second compound 0.316 µM,0.205 nM
same,IC50,second compound 1 µM,< 0.1 nM
same,IC50,second compound 3.16 µM,< 0.1 nM
same,IC50,second compound 10 µM,< 0.1 nM
same,"viability, T/C","second compound 0.1 µM, first compound 0.0001 µM",64.3%
same,"viability, T/C","second compound 0.1 µM, first compound 0.000316 µM",68.6%
same,"viability, T/C","second compound 0.1 µM, first compound 0.001 µM",34.1%
same,"viability, T/C","second compound 0.1 µM, first compound 0.00316 µM",17.9%
same,"viability, T/C","second compound 0.1 µM, first compound 0.01 µM",10.1%
same,"viability, T/C",[1],5.82%
same,"viability, T/C","second compound 0.316 µM, first compound 0.0001 µM",63.1%
same,"viability, T/C","second compound 0.316 µM, first compound 0.000316 µM",42.8%
same,"viability, T/C","second compound 0.316 µM, first compound 0.001 µM",22.3%
same,"viability, T/C","second compound 0.316 µM, first compound 0.00316 µM",14.1%
same,"viability, T/C","second compound 0.316 µM, first compound 0.01 µM",8.18%
same,"viability, T/C",[2],4.42%
same,"viability, T/C","second compound 1 µM, first compound 0.0001 µM",40.5%
same,"viability, T/C","second compound 1 µM, first compound 0.000316 µM",27.7%
same,"viability, T/C","second compound 1 µM, first compound 0.001 µM",14.1%
same,"viability, T/C","second compound 1 µM, first compound 0.00316 µM",9.38%
same,"viability, T/C","second compound 1 µM, first compound 0.01 µM",7.13%
same,"viability, T/C",[3],4.04%
same,"viability, T/C","second compound 3.16 µM, first compound 0.0001 µM",29.3%
same,"viability, T/C","second compound 3.16 µM, first compound 0.000316 µM",23.6%
same,"viability, T/C","second compound 3.16 µM, first compound 0.001 µM",10.8%
same,"viability, T/C","second compound 3.16 µM, first compound 0.00316 µM",5.83%
same,"viability, T/C","second compound 3.16 µM, first compound 0.01 µM",6.59%
same,"viability, T/C",[4],3.09%
same,"viability, T/C","second compound 10 µM, first compound 0.0001 µM",16.5%
same,"viability, T/C","second compound 10 µM, first compound 0.000316 µM",7.93%
same,"viability, T/C","second compound 10 µM, first compound 0.001 µM",5.92%
same,"viability, T/C","second compound 10 µM, first compound 0.00316 µM",4.52%
same,"viability, T/C","second compound 10 µM, first compound 0.01 µM",3.06%
same,"viability, T/C",[5],2.51%
COC(=O)c1ccc2c(C(=Nc3ccc(N(C)C(=O)CN4CCN(C)CC4)cc3)c3ccccc3)c(O)[nH]c2c1 + CC1OCC2(CCN(c3cnc(Sc4ccnc(N)c4Cl)c(N)n3)CC2)C1N,IC50,second compound 0.1 µM,> 10000 nM
same,IC50,second compound 0.316 µM,3480 nM
same,IC50,second compound 1 µM,1460 nM
same,IC50,second compound 3.16 µM,156 nM
same,IC50,second compound 10 µM,< 31.6 nM
same,"viability, T/C",[1],97.8%
same,"viability, T/C",[6],87.2%
same,"viability, T/C",[7],82.7%
same,"viability, T/C",[8],85.3%
same,"viability, T/C",[9],81.8%
same,"viability, T/C",[10],70.7%
same,"viability, T/C",[2],82.7%
same,"viability, T/C",[11],67%
same,"viability, T/C",[12],68.9%
same,"viability, T/C",[13],85.2%
same,"viability, T/C",[14],53.2%
same,"viability, T/C",[15],15%
same,"viability, T/C",[3],53.8%
same,"viability, T/C",[16],50.9%
same,"viability, T/C",[17],62.1%
same,"viability, T/C",[18],51.7%
same,"viability, T/C",[19],43.3%
same,"viability, T/C",[20],17.8%
same,"viability, T/C",[4],56.1%
same,"viability, T/C",[21],52%
same,"viability, T/C",[22],42.9%
same,"viability, T/C",[23],40.7%
same,"viability, T/C",[24],26.8%
same,"viability, T/C",[25],1.64%
same,"viability, T/C",[5],35%
same,"viability, T/C",[26],35%
same,"viability, T/C",[27],31.4%
same,"viability, T/C",[28],20%
same,"viability, T/C",[29],4.21%
same,"viability, T/C",[30],0.83%
COc1cc(Nc2ncc3c(n2)-c2ccc(Cl)cc2C(c2c(F)cccc2OC)=NC3)ccc1C(=O)O + CC1OCC2(CCN(c3cnc(Sc4ccnc(N)c4Cl)c(N)n3)CC2)C1N,IC50,second compound 0.1 µM,< 31.6 nM
same,IC50,second compound 0.316 µM,< 31.6 nM
same,IC50,second compound 1 µM,< 31.6 nM
same,IC50,second compound 3.16 µM,< 31.6 nM
same,IC50,second compound 10 µM,< 31.6 nM
same,"viability, T/C",[1],51%
same,"viability, T/C",[6],25.3%
same,"viability, T/C",[7],24.6%
same,"viability, T/C",[8],28.7%
same,"viability, T/C",[9],40.4%
same,"viability, T/C",[10],42.6%
same,"viability, T/C",[2],34.6%
same,"viability, T/C",[11],21.5%
same,"viability, T/C",[12],22%
same,"viability, T/C",[13],26%
same,"viability, T/C",[14],25.8%
same,"viability, T/C",[15],23.7%
same,"viability, T/C",[3],23.4%
same,"viability, T/C",[16],16.7%
same,"viability, T/C",[17],17.7%
same,"viability, T/C",[18],19.6%
same,"viability, T/C",[19],18.7%
same,"viability, T/C",[20],20.1%
same,"viability, T/C",[4],19.5%
same,"viability, T/C",[21],14.2%
same,"viability, T/C",[22],14.1%
same,"viability, T/C",[23],18.5%
same,"viability, T/C",[24],14.2%
same,"viability, T/C",[25],21%
same,"viability, T/C",[5],13.3%
same,"viability, T/C",[26],12.5%
same,"viability, T/C",[27],10.3%
same,"viability, T/C",[28],9.72%
same,"viability, T/C",[29],10.8%
same,"viability, T/C",[30],9.48%
